# According to patent publication US9822164B2, “Labelling agent, and composition for labelling a protein, method for labelling a protein, and method for detecting a protein” (KOREA INSTITUTE OF SCIENCE AND TECHNOLOGY, priority 2014, dated 2017):
# Tests used:
# [1] = Maximum values of absorbance and fluorescence of the compounds in DMSO; assay type: physicochemical
# Procedure: Experimental device, analyzer and reagents used in Examples and comparative experiments are the same as follows. FT-NMR spectroscopy is performed using Bruker Avance 400, and LC/MS analysis is performed using Thermo Dionex ultimate 3000/Velos pro on ion-trap mass spectrometer (ITMS). All reagents purchased from Aldrich are used without additional purification. Whatman filter papers having a diameter of 125 mm are used. Of derivatives used in experiments, 2-(2-Aminophenyl)-1H-benzimidazole) (ABI) is purchased from Aldrich, and NMR analysis and fluorescence/absorbance values are recorded by the method known in the art. […]
# peroxidase = assay: Labelling (photocrosslinking) of protein by UV irradiation, gel electrophoresis, fluorescence intensity; assay type: binding; settings: 5 minutes after UV irradiation, about 254 nm; FIG. 1c
# Procedure: (§1) Proteins of BSA, HSA, peroxidase, and lysozyme are treated with the compounds synthesized or purchased in Example 1, and irradiated with UV at about 254 nm. Then, binding of the compound and the protein over UV irradiation time is examined by gel electrophoresis. A gel electrophoresis apparatus (Bio-Rad) and a small vertical gel electrophoresis apparatus are connected and used for gel electrophoresis. For experiment, a 12% SDS gel and a running buffer are directly prepared as follows and used. 12% SDS gel is prepared by mixing 7.9 ml of H2O, 6.5 ml of pH […] Tris-HCl buffer, 10 ml of 30% Acryl amide, 250 μl of 10% SDS gel, 250 μl of APS, and 10 μl of TMEDE. 1× running buffer is prepared by mixing 200 ml of 10×TGS buffer and 1800 ml of H2O.
# (§2) Proteins of BSA, HAS, peroxidase, and lysozyme are purchased from Sigma Aldrich. Fluorescence intensity of the labeled protein is measured using BIO-RAD ChemiDoc, and Blue Epi and Green Epi are used as a light source, and 530 nm emission (28 nm bandwidth) and 650 nm emission (50 nm bandwidth) filters are used according to fluorescence wavelength.
# (§3) Y axis of FIGS. 1a through 1d represents fluorescence intensity, indicating photocrosslinking degree of the compound and protein.
# HSA = molecular target: T1, HSA (Homo sapiens, UniProt P02768); assay: as above; assay type: binding; settings: 5 minutes after UV irradiation, about 254 nm; FIG. 1b
# T1 construct: purchased Sigma Aldrich
# T1 sequence (P02768 25-609): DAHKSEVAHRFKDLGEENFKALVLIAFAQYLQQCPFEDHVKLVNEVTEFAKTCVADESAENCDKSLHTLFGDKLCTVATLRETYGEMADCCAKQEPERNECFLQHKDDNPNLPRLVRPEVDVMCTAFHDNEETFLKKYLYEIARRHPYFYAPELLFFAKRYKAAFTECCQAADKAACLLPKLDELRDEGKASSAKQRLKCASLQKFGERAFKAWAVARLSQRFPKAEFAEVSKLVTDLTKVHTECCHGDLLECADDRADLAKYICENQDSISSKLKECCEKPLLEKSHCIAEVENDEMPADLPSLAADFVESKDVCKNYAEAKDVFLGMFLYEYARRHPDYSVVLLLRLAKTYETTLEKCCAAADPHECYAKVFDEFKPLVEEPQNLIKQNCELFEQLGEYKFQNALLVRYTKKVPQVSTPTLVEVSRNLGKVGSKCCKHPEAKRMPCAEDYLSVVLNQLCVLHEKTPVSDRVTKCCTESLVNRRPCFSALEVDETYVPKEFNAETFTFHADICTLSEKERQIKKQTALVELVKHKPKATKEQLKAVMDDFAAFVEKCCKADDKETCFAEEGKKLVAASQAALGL
# Procedure: as §1, §2, §3
# [2] = tested on: BSA, HSA, peroxidase, and lysozyme; assay: Protein labelling, results of FIGS. 1a to 1d taken together; assay type: binding
# Procedure: as §1, §2
# Y axis of FIGS. 1a through 1d represents fluorescence intensity, indicating photocrosslinking degree of the compound and protein. […]
# lysozyme = molecular target: T2, lysozyme (Gallus gallus, UniProt P00698); assay: Labelling (photocrosslinking) of protein by UV irradiation, gel electrophoresis, fluorescence intensity; assay type: binding; settings: 5 minutes after UV irradiation, about 254 nm; FIG. 1d
# T2 construct: purchased Sigma Aldrich
# T2 sequence (P00698 19-147): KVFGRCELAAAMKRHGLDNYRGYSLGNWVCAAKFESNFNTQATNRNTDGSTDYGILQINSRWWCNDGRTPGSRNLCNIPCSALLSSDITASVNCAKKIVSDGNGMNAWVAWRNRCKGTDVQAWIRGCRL
# Procedure: as §1, §2, §3
# BSA = molecular target: T3, BSA (Bos taurus, UniProt P02769); assay: as above; assay type: binding; settings: 5 minutes after UV irradiation, about 254 nm; FIG. 1a
# T3 construct: purchased Sigma Aldrich
# T3 sequence (P02769 25-607): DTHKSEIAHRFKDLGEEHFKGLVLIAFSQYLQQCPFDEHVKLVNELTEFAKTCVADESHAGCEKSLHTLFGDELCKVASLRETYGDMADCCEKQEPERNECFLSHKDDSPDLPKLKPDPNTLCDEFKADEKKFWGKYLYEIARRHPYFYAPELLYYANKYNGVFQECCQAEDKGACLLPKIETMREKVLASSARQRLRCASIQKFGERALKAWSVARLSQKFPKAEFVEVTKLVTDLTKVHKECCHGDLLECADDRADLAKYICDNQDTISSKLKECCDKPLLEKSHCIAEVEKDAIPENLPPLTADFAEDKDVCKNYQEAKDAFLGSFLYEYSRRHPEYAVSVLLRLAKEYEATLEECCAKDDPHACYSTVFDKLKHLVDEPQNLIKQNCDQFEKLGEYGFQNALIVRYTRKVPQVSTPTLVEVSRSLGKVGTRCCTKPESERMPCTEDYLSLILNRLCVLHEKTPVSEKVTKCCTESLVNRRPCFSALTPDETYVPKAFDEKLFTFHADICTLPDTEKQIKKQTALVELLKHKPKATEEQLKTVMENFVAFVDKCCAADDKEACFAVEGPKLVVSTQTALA
# Procedure: as §1, §2, §3
Compound,Absorbance (maximum value) [1] [nm],Fluorescence (maximum value) [1] [nm],"Labeling of peroxidase (fluorescence intensity, photocrosslinking degree) (peroxidase)","Labeling of HSA (fluorescence intensity, photocrosslinking degree) (HSA)","Photocrosslinking property, comparison among the compounds [2]","Labeling of lysozyme (fluorescence intensity, photocrosslinking degree) (lysozyme)","Labeling of BSA (fluorescence intensity, photocrosslinking degree) (BSA)"
"Nc1ccccc1-c1nc2ccccc2[nH]1 [ABI, 2-(2-Aminophenyl)-1H-benzimidazole]",360,415,significant labeling,significant labeling,,,
"Oc1ccccc1-c1nc2ccccc2[nH]1 [HBI, 2-(2-hydroxyphenyl)benzimidazole]",320,463,significant labeling,significant labeling,highest photocrosslinking property,significant labeling,significant labeling
"Oc1ccccc1-c1nc2ccccc2o1 [HBO, 2-(2-hydroxyphenyl)benzoxazole]",380,480,,,,,significant labeling
"Oc1ccccc1-c1nc2ccccc2s1 [HBT, 2-(2-hydroxyphenyl)benzothiazole]",350,515,,,,,
"CCN(CC)c1ccc2nc(-c3ccccc3O)[nH]c2c1 [HDBI, 2-(2-hydroxyphenyl)-5-(diethylamino)benzimidazole]",360,448,significant labeling,significant labeling,,significant labeling,significant labeling
